The assay deals with MRSA-4. Description: MRSA skin infection model. The format is in vivo, BALB/c mice. Here is the method:
All animal experiments were conducted in accordance with the NIH Guide for the Care and Use of Laboratory Animals and the institutional guidelines of West China Hospital, Sichuan University. The study was approved by the Institutional Animal Care and Use Committee (HX20220224085). Female BALB/c mice (6–8 weeks old) were obtained from Chengdu DOSSY Experimental Animal Co., Ltd. (Chengdu, China) and randomly assigned to five groups (n = 6 per group). On day 0, mice were subcutaneously inoculated with 2 × 10^8 CFUs of MRSA-4 suspended in 50 μL of sterile PBS. Treatment commenced 24 h post-infection. Mice received once daily subcutaneous injections at the site of infection for four consecutive days with either AA (0.2, 0.4, or 0.8 mg/kg), vancomycin (0.8 mg/kg, positive control), or PBS (negative control). Lesion progression was monitored daily by photographing the infected area, and wound sizes were quantified using ImageJ software (Version 1.42q, NIH, USA). On day 5 post-infection, mice were anesthetized and euthanized. The whole lesioned skin tissues were aseptically excised, homogenized in 1 mL of sterile PBS, and serially diluted. Aliquots were plated on LB agar and incubated at 37°C overnight to determine bacterial burdens.
Building on its rapid bactericidal activity in vitro and unique FtsZ-binding profile, we next evaluated the in vivo therapeutic efficacy of AA using a murine skin infection model. The model was established in BALB/c mice by subcutaneous inoculation with 2 × 10^8 CFU of MRSA-4 (Figure 7A). Treatment began 24 h post-infection and consisted of daily subcutaneous injections at the infection site for four consecutive days with AA (0.2, 0.4, or 0.8 mg/kg), vancomycin (at 0.8 mg/kg; positive control), or PBS (negative control). Therapeutic outcomes were assessed on day 5 post-infection by quantifying bacterial burden, visually monitoring wound healing, and measuring abscess size.

[1] abbreviates: 0.8 mg/kg s.c. once daily for 4 days, day 5, vs PBS.

Turning to `C[C@H]1[C@H](C)CC[C@]2(C(=O)O)CC[C@]3(C)C(=CC[C@@H]4[C@@]5(C)C[C@@H](O)[C@H](O)[C@@](C)(CO)[C@@H]5CC[C@]43C)[C@H]12` [AA, asiatic acid], the “wound healing (visual inspection)” value by setting is: (0.8 mg/kg s.c. once daily for 4 days) “substantial amelioration of symptoms”; (low-dose (0.2 and 0.4 mg/kg) s.c. once daily for 4 days) “moderate, dose-dependent improvements in wound appearance”. Further, the abscess size result under setting [1] was “significantly reduced abscess dimensions”. Besides, the “bacterial load in infected skin tissues” value was “significantly reduced bacterial counts” under setting [1]; “modest but dose-responsive decreases in bacterial load” (0.2 and 0.4 mg/kg s.c. once daily for 4 days, day 5, vs PBS).

The record behind these values is PMC12213745, “Compounds from Cyclocarya paliurus leaves inhibit binary division of methicillin-resistant Staphylococcus aureus by disrupting FtsZ dynamic” (Frontiers in Microbiology, 2025).
